Source: US20210387966A1, “2-AMINO-N-HETEROARYL-NICOTINAMIDES AS NAV1.8 INHIBITORS” (Merck Sharp & Dohme Corp., priority 2018, published 2021)

Biological target: T1, human Nav1.8 channels (Homo sapiens, UniProt Q9Y5Y9)
T1 construct: expressed in transfected cells
Assay: Nav1.8 Qube automated patch-clamp assay
Type: cell-based
Conditions: human Nav1.8 stably expressed in HEK 293 cells; whole-cell voltage clamp, room temperature; resting or inactivated state not specified; read-out: IC50 values (nM) for Examples in the Nav1.8 Qube Assay
Method: Compounds were tested on human Nav1.8 and Nav1.5 channels stably expressed in human embryo kidney (HEK) 293 cells. Sodium current measurements on Qube® were conducted as follows: automated 384-well patch-clamp assays on the Qube® platform (Sophion Biosciences) were used to measure the inhibition of sodium flow through human Nav1.8 and Nav1.5 channels. Whole-cell voltage-clamp recordings were performed in QChips® (Sophion Biosciences) at room temperature. Nav1.8 current measurements on Qube® were obtained as follows: Nav1.8 currents were elicited with a 10 second 1 Hertz (Hz) pulse train from a holding potential of −90 millivolts (mV), delivered to the cells once per minute in the control condition (DMSO only) and after compound addition. The 1 hertz pulse train stimulation consisted of ten test pulses to 10 millivolt (mV) for 20 milliseconds (ms), each of which was followed by a 980 millisecond repolarization to −67 millivolts. At the end of the 10 second pulse train stimulation, a second hyperpolarization step to −100 millivolt (mV) was used to recover Nav1.8 from fast inactivation. The peak currents elicited by the 1st and 10th test pulses were used to determine IC50 values for resting inhibition and inactivated state inhibition. Nav1.5 current measurements on Qube® were obtained as follows: Nav1.5 currents were elicited with a 20 second 3 Hertz pulse train in the control condition (DMSO only) and after compound addition. The pulse train consisted of sixty 20 millisecond test pulses to 0 millivolt from a holding potential of −80 millivolt (mV). The average peak currents elicited by the last 3 test pulses were used to determine IC50 values for Nav1.5 inhibition.
The following buffers were used for the Qube® recordings: External buffer for Nav1.8 Qube® recording: 150 NaCl, 2 CaCl2, 5 KCl, 1 Mg Cl2, 10 HEPES, 12 Dextrose; External buffer for Qube® Nav1.5 recording: 120 N-Methyl-D-Glucamine, 40 NaCl, 1 KCl, 2.7 CaCl2, 5 HEPES, 0.5 MgCl2: and Internal buffer for Qube® recording: 120 CsF, 30 CsCl, 10 EGTA, 5 HEPES, 5 NaF, 2 MgCl2.
For all Qube® experiments offline analysis was used to determine percent inhibition as a function of drug concentration. IC50 values were determined by fitting to the Hill equation.

T1 sequence (Q9Y5Y9 whole entry): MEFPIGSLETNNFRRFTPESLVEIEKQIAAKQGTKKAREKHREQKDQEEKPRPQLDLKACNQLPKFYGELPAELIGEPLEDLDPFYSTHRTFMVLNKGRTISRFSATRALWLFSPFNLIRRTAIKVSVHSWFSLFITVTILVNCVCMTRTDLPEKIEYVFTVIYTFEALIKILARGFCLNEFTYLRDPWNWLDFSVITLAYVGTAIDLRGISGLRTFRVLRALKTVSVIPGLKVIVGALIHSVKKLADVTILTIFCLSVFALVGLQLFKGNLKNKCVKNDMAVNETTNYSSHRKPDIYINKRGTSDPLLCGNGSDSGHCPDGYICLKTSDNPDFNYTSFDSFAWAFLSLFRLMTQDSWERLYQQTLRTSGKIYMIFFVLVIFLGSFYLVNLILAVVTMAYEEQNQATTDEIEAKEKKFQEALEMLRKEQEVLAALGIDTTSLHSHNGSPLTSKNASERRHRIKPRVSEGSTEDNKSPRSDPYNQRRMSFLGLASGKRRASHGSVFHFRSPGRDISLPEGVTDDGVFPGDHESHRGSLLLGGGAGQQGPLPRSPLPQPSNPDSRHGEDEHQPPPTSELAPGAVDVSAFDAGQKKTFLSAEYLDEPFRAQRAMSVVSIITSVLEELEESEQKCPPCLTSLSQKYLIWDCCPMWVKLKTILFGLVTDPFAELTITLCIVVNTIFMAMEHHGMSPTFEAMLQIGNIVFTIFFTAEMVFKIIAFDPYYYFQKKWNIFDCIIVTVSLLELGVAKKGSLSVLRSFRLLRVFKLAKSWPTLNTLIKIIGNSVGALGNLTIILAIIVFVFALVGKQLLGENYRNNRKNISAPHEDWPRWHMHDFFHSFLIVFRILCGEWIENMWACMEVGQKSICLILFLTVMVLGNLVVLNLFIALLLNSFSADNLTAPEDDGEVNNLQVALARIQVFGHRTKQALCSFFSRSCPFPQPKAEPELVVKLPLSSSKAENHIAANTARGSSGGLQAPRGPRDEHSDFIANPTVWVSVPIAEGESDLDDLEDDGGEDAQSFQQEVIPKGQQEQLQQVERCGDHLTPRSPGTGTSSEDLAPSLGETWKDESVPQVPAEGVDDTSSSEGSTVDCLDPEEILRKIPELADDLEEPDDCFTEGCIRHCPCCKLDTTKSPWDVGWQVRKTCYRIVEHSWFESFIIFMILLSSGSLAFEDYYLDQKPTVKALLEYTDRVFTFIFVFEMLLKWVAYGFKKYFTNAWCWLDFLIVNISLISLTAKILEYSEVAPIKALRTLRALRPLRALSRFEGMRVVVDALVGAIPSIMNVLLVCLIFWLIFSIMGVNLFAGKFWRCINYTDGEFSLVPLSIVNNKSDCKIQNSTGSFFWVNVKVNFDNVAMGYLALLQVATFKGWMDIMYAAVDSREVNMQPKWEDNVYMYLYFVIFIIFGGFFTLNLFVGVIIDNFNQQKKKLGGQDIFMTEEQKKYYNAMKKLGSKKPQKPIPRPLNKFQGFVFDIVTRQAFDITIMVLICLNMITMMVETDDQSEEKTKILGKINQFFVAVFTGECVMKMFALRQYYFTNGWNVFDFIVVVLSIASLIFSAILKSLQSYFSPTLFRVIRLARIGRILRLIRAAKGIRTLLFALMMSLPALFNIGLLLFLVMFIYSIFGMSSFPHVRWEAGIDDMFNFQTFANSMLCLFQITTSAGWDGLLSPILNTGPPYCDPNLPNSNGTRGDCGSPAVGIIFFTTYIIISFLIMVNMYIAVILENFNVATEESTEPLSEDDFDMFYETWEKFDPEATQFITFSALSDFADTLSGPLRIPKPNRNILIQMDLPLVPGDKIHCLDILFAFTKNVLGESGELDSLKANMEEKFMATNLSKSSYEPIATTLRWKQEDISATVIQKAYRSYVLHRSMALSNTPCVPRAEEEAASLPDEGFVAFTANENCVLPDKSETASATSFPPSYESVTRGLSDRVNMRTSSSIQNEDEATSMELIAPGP

Row | IC50 [nM] | SMILES
1 | 57 | CC1CN(c2ncc(C(F)(F)F)cc2C(=O)Nc2ccnc(S(C)(=O)=O)c2)CCC1(F)F (single isomer, unassigned) [Example 149, 2-[(3S or 3R)-4,4-difluoro-3-methyl-1-piperidyl]-N-(2-methylsulfonyl-4-pyridyl)-5-(trifluoro-methyl)pyridine-3-carboxamide]
2 | 84 | CC1CN(c2ncc(C(F)(F)F)cc2C(=O)Nc2ccnc(C#N)c2)CCC1(F)F (single isomer, unassigned) [Example 154, (S or R)-N-(2-cyanopyridin-4-yl)-2-(4,4-difluoro-3-methylpiperidin-1-yl)-5-(trifluoro-methyl)nicotinamide]
3 | 60 | CC1CN(c2ncc(C(F)(F)F)cc2C(=O)Nc2ccnc(C#N)c2)CCC1(F)F (single isomer, unassigned) [Example 155, (R or S)-N-(2-cyanopyridin-4-yl)-2-(4,4-difluoro-3-methylpiperidin-1-yl)-5-(trifluoro-methyl)nicotinamide]
4 | 82 | CC1CN(c2ncc(C(F)(F)F)cc2C(=O)Nc2ccnc(C(N)=O)c2)CCC1(F)F (single isomer, unassigned) [Example 157, N-(2-carbamoyl-4-pyridyl)-2-[(3R or 3S)-4,4-difluoro-3-methyl-1-piperidyl]-5-(trifluoromethyl)-pyridine-3-carboxamide]
5 | 41 | CC1CN(c2ncc(C(F)(F)F)cc2C(=O)Nc2ccnc(C(N)=O)c2)CCC1(F)F (single isomer, unassigned) [Example 158, N-(2-carbamoyl-4-pyridyl)-2-[(3S or 3R)-4,4-difluoro-3-methyl-1-piperidyl]-5-(trifluoromethyl)-pyridine-3-carboxamide]
6 | 22 | CC1CN(c2nc(C(F)(F)F)ccc2C(=O)Nc2ccnc(S(N)(=O)=O)c2)CCC1(F)F (single isomer, unassigned) [Example 162, (R or S)-2-(4,4-difluoro-3-methylpiperidin-1-yl)-N-(2-sulfamoylpyridin-4-yl)-6-(trifluoromethyl)nicotinamide]
7 | 10 | CC1CN(c2nc(C(F)(F)F)ccc2C(=O)Nc2ccnc(S(N)(=O)=O)c2)CCC1(F)F (single isomer, unassigned) [Example 163, (S or R)-2-(4,4-difluoro-3-methylpiperidin-1-yl)-N-(2-sulfamoylpyridin-d-yl)-6-(trifluoromethyl)nicotinamide]
8 | 3.3 | CC1CN(c2nc(C(F)(F)F)c(Cl)cc2C(=O)Nc2ccnc(S(N)(=O)=O)c2)CCC1(F)F (single isomer, unassigned) [Example 164, (S or R)-5-chloro-2-(4,4-difluoro-3-methylpiperidin-1-yl)-N-(2-sulfamoylpyridin-4-yl)-6-(trifluoromethyl)nicotinamide]
9 | 2.1 | CC1CN(c2nc(C(F)(F)F)c(Cl)cc2C(=O)Nc2ccnc(S(N)(=O)=O)c2)CCC1(F)F (single isomer, unassigned) [Example 165, (R or S)-5-chloro-2-(4,4-difluoro-3-methylpiperidin-1-yl)-N-(2-sulfamoylpyridin-4-yl)-6-(trifluoromethyl)nicotinamide]
10 | 406 | NS(=O)(=O)c1cncc(NC(=O)c2cc(C(F)(F)F)cnc2N2CCC(F)(F)CC2)n1 [Example 1, 2-(4,4-difluoropiperidin-1-yl)-N-(6-sulfamoylpyrazin-2-yl)-5-(trifluoromethyl)nicotinamide]
11 | 2190 | O=C(Nc1nccc(O)n1)c1cc(C(F)(F)F)cnc1N1CCC(F)(F)CC1 [Example 2, 2-(4,4-difluoropiperidin-1-yl)-N-(4-hydroxypyrimidin-2-yl)-5-(trifluoromethyl)nicotinamide]
12 | 2380 | O=C(O)c1ccc(NC(=O)c2cc(C(F)(F)F)cnc2N2CCC(F)(F)CC2)cn1 [Example 3, 5-(2-(4,4-difluoropiperidin-1-yl)-5-(trifluoromethyl)nicotinamido)picolinic acid]
13 | 5430 | O=C(O)c1cc(NC(=O)c2cc(C(F)(F)F)cnc2N2CCC(F)(F)CC2)ccn1 [Example 4, 4-(2-(4,4-difluoropiperidin-1-yl)-5-(trifluoromethyl)nicotinamido)picolinic acid]
14 | 820 | N#Cc1ccc(NC(=O)c2cc(C(F)(F)F)cnc2N2CCC(F)(F)CC2)cn1 [Example 5, N-(6-cyanopyridin-3-yl)-2-(4,4-difluoropiperidin-1-yl)-5-(trifluoromethyl)nicotinamide]
15 | 355 | CS(=O)(=O)c1cncc(NC(=O)c2cc(C(F)(F)F)cnc2N2CCCCCC2)c1 [Example 6, 2-(azepan-1-yl)-N-(5-(methylsulfonyl)pyridin-3-yl)-5-(trifluoromethyl)nicotinamide]
16 | 2830 | NS(=O)(=O)c1cc(NC(=O)c2cc(C(F)(F)F)cnc2N2CCCC(CO)C2)ccn1 (centres unmarked) [Example 7, 2-(3-(hydroxymethyl)piperidin-1-yl)-N-(2-sulfamoylpyridin-4-yl)-5-(trifluoromethyl)nicotinamide]
17 | 2350 | NC(=O)c1cncc(NC(=O)c2cc(C(F)(F)F)cnc2N2CCCCCC2)c1 [Example 8, 2-(azepan-1-yl)-N-(5-carbamoylpyridin-3-yl)-5-(trifluoromethyl)nicotinamide]
18 | 816 | Cc1ccc(C(=O)Nc2cncc(S(N)(=O)=O)c2)c(N2CCC(F)(F)CC2)n1 [Example 9, 2-(4,4-difluoro-1-piperidyl)-6-methyl-N-(5-sulfamoyl-3-pyridyl)pyridine-3-carboxamide]
19 | 174 | NS(=O)(=O)c1cncc(NC(=O)c2cc(Cl)cnc2N2CCC(F)(F)CC2)c1 [Example 10, 5-chloro-2-(4,4-difluoro-1-piperidyl)-N-(5-sulfamoyl-3-pyridyl)pyridine-3-carboxamide]
20 | 212 | Cc1cc(Cl)nc(N2CCC(F)(F)CC2)c1C(=O)Nc1cncc(S(N)(=O)=O)c1 [Example 11, 6-chloro-2-(4,4-difluoropiperidin-1-yl)-4-methyl-N-(5-sulfamoylpyridin-3-yl)nicotinamide]
21 | 94 | NS(=O)(=O)c1cc(NC(=O)c2cc(C3CC3)c(C3CC3)nc2N2CCC(F)(F)CC2)ccn1 [Example 12, 5,6-dicyclopropyl-2-(4,4-difluoropiperidin-1-yl)-N-(2-sulfamoylpyridin-4-yl)nicotinamide]
22 | 45 | Cc1nc(N2CCC(F)(F)CC2)c(C(=O)Nc2ccnc(S(N)(=O)=O)c2)cc1C1CC1 [Example 14, 5-cyclopropyl-2-(4,4-difluoropiperidin-1-yl)-6-methyl-N-(2-sulfamoylpyridin-4-yl)nicotinamide]
23 | 67 | NS(=O)(=O)c1cc(NC(=O)c2cc(C3CC3)c(OCC(F)(F)F)nc2N2CCC(F)(F)CC2)ccn1 [Example 20, 5-cyclopropyl-2-(4,4-difluoropiperidin-1-yl)-N-(2-sulfamoylpyridin-4-yl)-6-(2,2,2-trifluoroethoxy)nicotinamide]
24 | 2.1 | NS(=O)(=O)c1cc(NC(=O)c2ccc(C3CCC3)nc2N2CCCC(F)(F)CC2)ccn1 [Example 24, 6-cyclobutyl-2-(4,4-difluoroazepan-1-yl)-N-(2-sulfamoylpyridin-4-yl)nicotinamide]
25 | 5.4 | Cc1nc(N2CCCC(F)(F)CC2)c(C(=O)Nc2ccnc(S(N)(=O)=O)c2)cc1C#N [Example 25, 5-cyano-2-(4,4-difluoroazepan-1-yl)-6-methyl-N-(2-sulfamoylpyridin-4-yl)nicotinamide]
26 | 1860 | NS(=O)(=O)c1cc(NC(=O)c2cccnc2N2CCC(F)(F)CC2)ccn1 [Example 26, 2-(4,4-difluoropiperidin-1-yl)-N-(2-sulfamoylpyridin-4-yl)nicotinamide]
27 | 31 | O=C(Nc1cc[nH]c(=O)c1)c1cc(Cl)c(C2CC2)nc1N1CCCC(F)(F)CC1 [Example 27, 5-chloro-6-cyclopropyl-2-(4,4-difluoroazepan-1-yl)-N-(2-oxo-1,2-dihydropyridin-4-yl)nicotinamide]
28 | 1300 | NS(=O)(=O)c1cc(NC(=O)c2cc(C(F)(F)F)cnc2N2CCC(F)(F)CCC2=O)ccn1 [Example 28, 2-(5,5-Difluoro-2-oxoazepan-1-yl)-N-(2-sulfamoylpyridin-4-yl)-5-(trifluoromethyl)nicotinamide]
29 | 31 | NS(=O)(=O)c1cc(NC(=O)c2cc(C(F)(F)F)cnc2N2CCC(Cl)(Cl)CC2)ccn1 [Example 29, 2-(4,4-Dichloropiperidin-1-yl)-N-(2-sulfamoylpyridin-4-yl)-5-(trifluoromethyl)nicotinamide]
